# Results: article PMC11876601 (Molecular Systems Biology, 2025)
# Read-outs that look alike come from different tables or passages of the source.
# Assays:
# Experiment in all cases: cells
# Design in all cases: Viability of PDAC cell lines, ATPlite luminescence, 11-dose single-agent curve fit
# [1] = test system: PANC-1
# Experimental: (§1) Afterward, small amounts were transferred to 384-well intermediate plates (Greiner Bio-One GmbH, Germany). […] For drug combination screening, 1000 to 5000 cells were seeded into 384-well plates (CulturPlate™, Perkin Elmer, MA, USA) using a Multidrop™ Combi Reagent Dispenser (Thermo Scientific, MA, USA) in 50 µl medium per well 24 h prior to drug treatment (seeding densities see Appendix Table S1). […] The final DMSO concentration in each well was 0.2%. […] Eight wells per plate without library drug served as negative controls, and sixteen wells per plate containing 5 µM Staurosporine served as positive controls. […] Next, we analyzed the drug sensitivity of immortalized duct cell line HPDE to detect effects unrelated to pancreatic cancer.
# [2] = test system: PSN-1
# Experimental: as §1
# [3] = test system: PaTu-8988-T; conditions: 72 h
# Experimental: as §1
# [4] = test system: Colo-357
# Experimental: as §1
# [5] = test system: FAMPAC; conditions: 72 h
# Experimental: as §1
# [6] = test system: Dan-G; conditions: 72 h
# Experimental: as §1
# [7] = test system: BxPC-3
# Experimental: as §1
# [8] = test system: MiaPaCa-2
# Experimental: as §1
# [9] = test system: Suit2-07; conditions: 72 h
# Experimental: as §1
# [10] = test system: AsPC-1
# Experimental: as §1
# [11] = test system: HPDE; conditions: 72 h
# Experimental: as §1
# [12] = test system: HuP-T4
# Experimental: as §1
# [13] = test system: Capan-1
# Experimental: as §1
# [14] = Homo sapiens, PANC-1, 72 h, read-out: EC50 [nM]
# [15] = Homo sapiens, PSN1, 72 h, read-out: EC50 [nM]
# [16] = Homo sapiens, PaTu 8988t, read-out: EC50 [nM]
# [17] = Homo sapiens, COLO357, 72 h, read-out: EC50 [nM]
# [18] = Homo sapiens, BXPC-3, 72 h, read-out: EC50 [nM]
# [19] = Homo sapiens, MIA PaCa-2, 72 h, read-out: EC50 [nM]
# [20] = Homo sapiens, ASPC1, 72 h, read-out: EC50 [nM]
# [21] = Homo sapiens, HuP-T4, 72 h, read-out: EC50 [nM]
# [22] = Homo sapiens, CAPAN-1, 72 h, read-out: EC50 [nM]
SMILES,"EC50 [1, 14]","EC50 [2, 15]","EC50 [3, 16]","EC50 [4, 17]",EC50 ([5]; read-out: EC50 [nM]),EC50 ([6]; read-out: EC50 [nM]),"EC50 [7, 18]","EC50 [8, 19]",EC50 ([9]; read-out: EC50 [nM]),"EC50 [10, 20]","EC50 ([11]; HPDE, read-out: EC50 [nM])","EC50 [12, 21]","EC50 [13, 22]",further results
CCCS(=O)(=O)N[C@H]1C[C@@H](N(C)c2ncnc3[nH]ccc23)C1 [Abrocitinib],140 nM,> 10000 nM,3800 nM,9870 nM,2.68 nM,> 10000 nM,275 nM,2760 nM,901 nM,3850 nM,5620 nM,643 nM,37.4 nM,
Cc1c(F)cc(C(=O)NC2CC2)cc1-c1ccc(C(=O)NCC(C)(C)C)cn1 [Losmapimod],95.7 nM,130 nM,1180 nM,26.1 nM,0.11 nM,363 nM,536 nM,449 nM,10.7 nM,361 nM,25.6 nM,218 nM,150 nM,
O=S(=O)(c1cccc2cnccc12)N1CCCNCC1 [Fasudil],5330 nM,0.04 nM,1140 nM,6850 nM,> 10000 nM,2960 nM,805 nM,3390 nM,2790 nM,2.85 nM,> 10000 nM,609 nM,> 10000 nM,
CONC(=O)c1ccccc1Nc1cc(Nc2cc(C)nn2C(C)C)ncc1Cl [GSK2256098],804 nM,5120 nM,858 nM,515 nM,3020 nM,3730 nM,1670 nM,2520 nM,6450 nM,292 nM,156 nM,4790 nM,1650 nM,
O=C(Nc1cnn2ccc(N3CCC[C@@H]3c3cc(F)ccc3F)nc12)N1CC[C@H](O)C1 [Larotrectinib],,,,,,,,,,,,,,"EC50 ([1]; 72 h, read-out: EC50): 211 nM; EC50 ([2]; 72 h, read-out: EC50): 270 nM; EC50 ([3]; read-out: EC50): 678 nM; EC50 ([4]; 72 h, read-out: EC50): 34.9 nM; EC50 ([5]; read-out: EC50): 842 nM; EC50 ([6]; read-out: EC50): 451 nM; EC50 ([7]; 72 h, read-out: EC50): 357 nM; EC50 ([8]; 72 h, read-out: EC50): 53.6 nM; EC50 ([9]; read-out: EC50): 196 nM; EC50 ([10]; 72 h, read-out: EC50): 53.5 nM; EC50 ([11]; read-out: EC50): 459 nM; EC50 ([12]; 72 h, read-out: EC50): 148 nM; EC50 ([13]; 72 h, read-out: EC50): 3880 nM"
CO[C@H]1C[C@@H]2CC[C@@H](C)[C@@](O)(O2)C(=O)C(=O)N2CCCC[C@H]2C(=O)O[C@H]([C@H](C)C[C@@H]2CC[C@@H](OCCO)[C@H](OC)C2)CC(=O)[C@H](C)/C=C(\C)[C@@H](O)[C@@H](OC)C(=O)[C@H](C)C[C@H](C)/C=C/C=C/C=C/1C [Certican],171 nM,0.05 nM,0.1 nM,238 nM,5.43 nM,0.21 nM,0.09 nM,1.84 nM,2610 nM,0.14 nM,0.16 nM,2.46 nM,3520 nM,
COc1cc2nccc(Oc3ccc(NC(=O)NC4CC4)c(Cl)c3)c2cc1C(N)=O [Lenvatinib],655 nM,7480 nM,> 10000 nM,4390 nM,164 nM,39.1 nM,> 10000 nM,4890 nM,0.2 nM,394 nM,> 10000 nM,0.14 nM,7850 nM,
CC#CC(=O)N1CCC[C@H]1c1nc(-c2ccc(C(=O)Nc3ccccn3)cc2)c2c(N)nccn12 [Acalabrutinib],365 nM,4470 nM,1590 nM,2640 nM,> 10000 nM,553 nM,756 nM,718 nM,13.1 nM,1.48 nM,703 nM,632 nM,3020 nM,
